In brackets after ≈: the same amount, converted by molar mass. Activity calls are given as the source filed them. The rule behind the calls is not given here.
Columns and labels:
THP-1 [1] = test: Antiinflammatory activity in human PMA-stimulated THP1 cells assessed as inhibition of LPS-induced TNFalpha production at 10 uM treated 30 mins before LPS challenge measured after 24 hrs by ELISA; type: functional
THP-1 [2] = test: Antiinflammatory activity in human PMA-stimulated THP1 cells assessed as inhibition of LPS-induced IL-6 production at 10 uM treated 30 mins before LPS challenge measured after 24 hrs by ELISA; type: functional
Staphylococcus aureus [3] = test: Antibacterial activity against Staphylococcus aureus by agar well diffusion method; type: functional
Bacillus subtilis [4] = test: Antibacterial activity against Bacillus subtilis by agar well diffusion method; type: functional
Escherichia coli [5] = test: Antibacterial activity against Escherichia coli by agar well diffusion method; type: functional
Salmonella typhimurium [6] = test: Antibacterial activity against Salmonella typhimurium by agar well diffusion method; type: functional, Salmonella enterica subsp. enterica serovar Typhimurium; details: Salmonella enterica
Candida albicans = test: Antifungal activity against Candida albicans by agar well diffusion method; type: functional
Aspergillus niger [7] = test: Antifungal activity against Aspergillus niger by agar well diffusion method; type: functional
Fusarium solani [8] = test: Antifungal activity against Fusarium solani by agar well diffusion method; type: functional
Aspergillus flavus [9] = test: Antifungal activity against Aspergillus flavus by agar well diffusion method; type: functional
Staphylococcus aureus [10] = test: Antibacterial activity against Staphylococcus aureus up to 200 ug/ml by agar well diffusion method; type: functional, organism-based
Bacillus subtilis [11] = test: Antibacterial activity against Bacillus subtilis up to 200 ug/ml by agar well diffusion method; type: functional, organism-based
Escherichia coli [12] = test: Antibacterial activity against Escherichia coli up to 200 ug/ml by agar well diffusion method; type: functional, organism-based
Salmonella typhimurium [13] = test: Antibacterial activity against Salmonella typhimurium up to 200 ug/ml by agar well diffusion method; type: functional, organism-based; details: Salmonella enterica subsp. enterica serovar Typhimurium
Aspergillus niger [14] = test: Antifungal activity against Aspergillus niger up to 200 ug/ml by agar well diffusion method; type: functional, organism-based
Aspergillus flavus [15] = test: Antifungal activity against Aspergillus flavus up to 200 ug/ml by agar well diffusion method; type: functional, organism-based
Fusarium solani [16] = test: Antifungal activity against Fusarium solani up to 200 ug/ml by agar well diffusion method; type: functional, organism-based

Compound	inhibition at 10 µM (THP-1 [1]) [%]	inhibition at 10 µM (THP-1 [2]) [%]	MIC (Staphylococcus aureus [3]) [µg/mL]	MIC (Bacillus subtilis [4]) [µg/mL]	MIC (Escherichia coli [5]) [µg/mL]	MIC (Salmonella typhimurium [6]) [µg/mL]	MIC (Candida albicans) [µg/mL]	MIC (Aspergillus niger [7]) [µg/mL]	MIC (Fusarium solani [8]) [µg/mL]	MIC (Aspergillus flavus [9]) [µg/mL]	Activity (Staphylococcus aureus [10])	Activity (Bacillus subtilis [11])	Activity (Escherichia coli [12])	Activity (Salmonella typhimurium [13])	Activity (Aspergillus niger [14])	Activity (Aspergillus flavus [15])	Activity (Fusarium solani [16])
COc1cccc(NC(=O)Nc2ccc(-c3cc(Nc4cccc(C(F)(F)F)c4)ncn3)cc2)c1	11	18	35 (≈ 73 µM)	30 (≈ 62.6 µM)	30 (≈ 62.6 µM)	30 (≈ 62.6 µM)	55 (≈ 115 µM)	35 (≈ 73 µM)	20 (≈ 41.7 µM)	20 (≈ 41.7 µM)							
FC(F)(F)c1cccc(Nc2cc(-c3ccc(NC(=S)Nc4ccccc4C(F)(F)F)cc3)ncn2)c1	68	82					15 (≈ 28.1 µM)	25 (≈ 46.9 µM)	15 (≈ 28.1 µM)	15 (≈ 28.1 µM)	inactive	inactive	inactive	inactive			
Cc1ccc(F)cc1S(=O)(=O)Nc1ccc(-c2cc(Nc3cccc(C(F)(F)F)c3)ncn2)cc1	48	56	15 (≈ 29.9 µM)	10 (≈ 19.9 µM)	15 (≈ 29.9 µM)	15 (≈ 29.9 µM)	90 (≈ 179 µM)		90 (≈ 179 µM)	90 (≈ 179 µM)					inactive		
O=C(O)c1cn(C2CC2)c2cc(N3CCNCC3)c(F)cc2c1=O [CIPROFLOXACIN]			20 (≈ 60.4 µM)	15 (≈ 45.3 µM)	15 (≈ 45.3 µM)	20 (≈ 60.4 µM)											
Cc1ccc(NC(=O)Nc2ccc(-c3cc(Nc4cccc(C(F)(F)F)c4)ncn3)cc2)cc1C	16	27	90 (≈ 188 µM)	90 (≈ 188 µM)			40 (≈ 83.8 µM)	75 (≈ 157 µM)	60 (≈ 126 µM)	30 (≈ 62.8 µM)			inactive	inactive			
COc1ccc(NC(=S)Nc2ccc(-c3cc(Nc4cccc(C(F)(F)F)c4)ncn3)cc2)cc1	3	8					80 (≈ 161 µM)		90 (≈ 182 µM)	90 (≈ 182 µM)	inactive	inactive	inactive	inactive	inactive		
N#Cc1cccc(NC(=S)Nc2ccc(-c3cc(Nc4cccc(C(F)(F)F)c4)ncn3)cc2)c1	11	16	90 (≈ 183 µM)		90 (≈ 183 µM)	90 (≈ 183 µM)	20 (≈ 40.8 µM)	40 (≈ 81.5 µM)	20 (≈ 40.8 µM)	20 (≈ 40.8 µM)		inactive					
CSc1ccc(NC(=O)Nc2ccc(-c3cc(Nc4cccc(C(F)(F)F)c4)ncn3)cc2)cc1	0	0	75 (≈ 151 µM)	90 (≈ 182 µM)	90 (≈ 182 µM)	90 (≈ 182 µM)	90 (≈ 182 µM)		90 (≈ 182 µM)	90 (≈ 182 µM)					inactive		
FC(F)(F)c1cccc(Nc2cc(-c3ccc(NC(=S)Nc4cc(C(F)(F)F)cc(C(F)(F)F)c4)cc3)ncn2)c1	0	0	20 (≈ 33.3 µM)	25 (≈ 41.6 µM)	25 (≈ 41.6 µM)	25 (≈ 41.6 µM)	90 (≈ 150 µM)		75 (≈ 125 µM)						inactive	inactive	
N#Cc1ccc(NC(=O)Nc2ccc(-c3cc(Nc4cccc(C(F)(F)F)c4)ncn3)cc2)cc1	61	80					80 (≈ 169 µM)	90 (≈ 190 µM)	75 (≈ 158 µM)	80 (≈ 169 µM)	inactive	inactive	inactive	inactive			
COc1ccc(OC)c(S(=O)(=O)Nc2ccc(-c3cc(Nc4cccc(C(F)(F)F)c4)ncn3)cc2)c1	8	26	45 (≈ 84.8 µM)	30 (≈ 56.5 µM)	25 (≈ 47.1 µM)	35 (≈ 66 µM)	25 (≈ 47.1 µM)	15 (≈ 28.3 µM)	15 (≈ 28.3 µM)	40 (≈ 75.4 µM)							
Nc1ccc(-c2cc(Nc3cccc(C(F)(F)F)c3)ncn2)cc1	0	6					80 (≈ 242 µM)	80 (≈ 242 µM)	90 (≈ 272 µM)	80 (≈ 242 µM)	inactive	inactive	inactive	inactive			
Clc1ccc(COC(Cn2ccnc2)c2ccc(Cl)cc2Cl)c(Cl)c1 (configuration not stated) [MICONAZOLE]							20 (≈ 48.1 µM)	15 (≈ 36 µM)	15 (≈ 36 µM)	20 (≈ 48.1 µM)							
Fc1ccccc1NC(=S)Nc1ccc(-c2cc(Nc3cccc(C(F)(F)F)c3)ncn2)cc1	50	62	90 (≈ 186 µM)	90 (≈ 186 µM)	90 (≈ 186 µM)		90 (≈ 186 µM)		90 (≈ 186 µM)	90 (≈ 186 µM)				inactive	inactive		
O=C(Nc1ccc(-c2cc(Nc3cccc(C(F)(F)F)c3)ncn2)cc1)Nc1cccc(Cl)c1F	78	96	90 (≈ 179 µM)				90 (≈ 179 µM)					inactive	inactive	inactive	inactive	inactive	inactive
O=C(Nc1ccc(-c2cc(Nc3cccc(C(F)(F)F)c3)ncn2)cc1)Nc1cccc(C(F)(F)F)c1	28	40	25 (≈ 48.3 µM)	40 (≈ 77.3 µM)	35 (≈ 67.6 µM)	80 (≈ 155 µM)	25 (≈ 48.3 µM)	35 (≈ 67.6 µM)	20 (≈ 38.7 µM)	20 (≈ 38.7 µM)							
O=S(=O)(Nc1ccc(-c2cc(Nc3cccc(C(F)(F)F)c3)ncn2)cc1)c1ccc(Br)cc1	6	11	80 (≈ 146 µM)				80 (≈ 146 µM)	95 (≈ 173 µM)		95 (≈ 173 µM)		inactive	inactive	inactive			
N#Cc1cccc(S(=O)(=O)Nc2ccc(-c3cc(Nc4cccc(C(F)(F)F)c4)ncn3)cc2)c1	0	12	40 (≈ 80.7 µM)	65 (≈ 131 µM)	25 (≈ 50.5 µM)	45 (≈ 90.8 µM)	55 (≈ 111 µM)	20 (≈ 40.4 µM)	20 (≈ 40.4 µM)	35 (≈ 70.6 µM)							
O=S(=O)(Nc1ccc(-c2cc(Nc3cccc(C(F)(F)F)c3)ncn2)cc1)c1ccccc1OC(F)(F)F	0	0	10 (≈ 18 µM)	10 (≈ 18 µM)	20 (≈ 36.1 µM)	10 (≈ 18 µM)	30 (≈ 54.1 µM)	60 (≈ 108 µM)	20 (≈ 36.1 µM)	20 (≈ 36.1 µM)							

Reference: ChEMBL document CHEMBL2021896, “A novel pyrimidine derivatives with aryl urea, thiourea and sulfonamide moieties: synthesis, anti-inflammatory and antimicrobial evaluation” (2012)
